Assay: Lipid profile changes (lipid classes and fatty acid composition) following simvastatin treatment, high vs low responders, PARC study
Assay type: in vivo, human
Settings: 40 mg, 6 weeks vs baseline, high minus low, ANOVA
Protocol: We evaluated lipid profiles of 48 subjects selected from the Pharmacogenetics and Risk of Cardiovascular Disease (PARC) study. Subjects were selected from the larger study population of 944 participants (335 African-Americans and 609 whites), with a baseline total serum cholesterol level of 160 to 400 mg/dl. Participants were followed for a total of 6 weeks on simvastatin therapy (40 mg at bedtime). Twenty-four subjects drawn from the top 10% of responders and 24 age-, gender-, and race-matched subjects from the bottom 10% of responders. Response was defined as percent change in LDL cholesterol from baseline to end of treatment. Samples used in this study were collected at baseline and at 6 weeks of therapy.
Data Reporting. Lipids measured included, butyrobetaine, L-carnitine, cholesterol, cholesterol esters (CE), diglycerides (DG), free cholesterol (FC), free fatty acids (FA), lysophosphatidylcholine (LY), phosphatidylcholine (PC), phosphatidylethanolamine (PE) and triglycerides (TG). For CE, DG, FA, LY, PC, PE and TG lipid classes the following fatty acid components were quantified as a proportion of total fatty acids within the lipid class: 14:0, 15:0, 16:0, 18:0, 20:0, 22:0, 24:0, 14:1n5, 16:1n7, 18:1n7, 18:1n9, 20:1n9, 20:3n9, 22:1n9, 24:1n9, 18:2n6, 18:3n6, 20:2n6, 20:3n6, 20:4n6, 22:2n6, 22:4n6, 22:5n6, 18:3n3, 18:4n3, 20:3n3, 20:4n3, 20:5n3, 22:5n3, 22:6n3, 24:6n3, plasmalogen derivatives of 16:0, 18:0, 18:1n7 and 18:1n9, t16:1n7 t18:1n9 t18:2n6. The term “LC” indicates the value shown is the total concentration of the lipid class expressed as nMoles per gram of serum or plasma. Thus, the abbreviation PC18:2n6 indicates the percentage of plasma or serum phosphatidylcholine comprised of linoleic acid (18:2n6), and the term TGLC indicates the absolute amount of triglyceride present in plasma or serum.
Statistical Methods. Before undertaking analysis, the data was cleaned by outlier removal and removal of uninformative metabolites. Outliers were identifies as those observation more than three standard deviations from the mean. Metabolites were determined to be uninformative if over ⅔rds of the observations were below the limit of detection and the pattern of observations falling below this limit was not related to the outcome.
Results of t-tests were used in order to reduce the number of metabolites being modeled.
A simple one-way ANOVA was used to evaluate the difference in lipid changes between high and low responders. From this analysis, contrasts were calculated for the comparison of low to high responders. In addition, an ANCOVA model was used to evaluate the difference in response adjusting for baseline concentrations of the metabolite and the time the samples were run. The outcome was change from baseline to post-treatment, baseline concentration was the covariate, response (high=1, low=0) and group (first=0, second=1) were included as factors, and an interaction term between baseline and response was included.
The column labeled “estimate” is the difference between the change from pre to post in high and low responders (high minus low). The standard error, t-statistic, p-value, and 95% confidence bounds of this estimate are also included (Lower.CI and Upper.CI).

[1] = proportion of fatty acids in lysophosphatidylcholine
[2] = proportion of fatty acids in phosphatidylcholine
[3] = proportion of fatty acids in phosphatidylethanolamine
[4] = proportion of fatty acids in triglyceride

CCC(C)(C)C(=O)O[C@H]1C[C@@H](C)C=C2C=C[C@H](C)[C@H](CC[C@@H]3C[C@@H](O)CC(=O)O3)[C@H]21 [simvastatin]
Estimate, difference between change in high and low responders: DGLC (total diglyceride): 2.4502 nMoles per gram of serum or plasma | Estimate, difference between change in high and low responders: LY14.1n5 [1]: 0.0135 percentage | Estimate, difference between change in high and low responders: LY16.0 [1]: −1.1505 percentage | Estimate, difference between change in high and low responders: LY18.0 [1]: −1.1443 percentage | Estimate, difference between change in high and low responders: LY18.1n9 [1]: 0.3099 percentage | Estimate, difference between change in high and low responders: LY18.3n6 [1]: 0.0774 percentage | Estimate, difference between change in high and low responders: LY20.4n3 [1]: −0.019 percentage | Estimate, difference between change in high and low responders: LY20.4n6 [1]: 0.1269 percentage | Estimate, difference between change in high and low responders: LY20.5n3 [1]: 0.0994 percentage | Estimate, difference between change in high and low responders: PC18.2n6 [2]: −1.5254 percentage | Estimate, difference between change in high and low responders: PC18.3n3 [2]: −0.0498 percentage | Estimate, difference between change in high and low responders: PC20.3n9 [2]: −0.0509 percentage | Estimate, difference between change in high and low responders: PC20.4n6 [2]: 1.1779 percentage | Estimate, difference between change in high and low responders: PC22.6n3 [2]: 0.4153 percentage | Estimate, difference between change in high and low responders: PE14.1n5 [3]: 0.0551 percentage | Estimate, difference between change in high and low responders: PE18.0 [3]: −2.0267 percentage | Estimate, difference between change in high and low responders: PE18.2n6 [3]: −1.036 percentage | Estimate, difference between change in high and low responders: PE20.0 [3]: 0.0189 percentage | Estimate, difference between change in high and low responders: PE20.3n6 [3]: −0.4196 percentage | Estimate, difference between change in high and low responders: PE20.4n3 [3]: −0.0102 percentage | Estimate, difference between change in high and low responders: PE22.5n3 [3]: −0.1266 percentage | Estimate, difference between change in high and low responders: TG18.3n3 [4]: −0.0787 percentage | Estimate, difference between change in high and low responders: TG18.3n6 [4]: 0.1008 percentage | Estimate, difference between change in high and low responders: TG18.4n3 [4]: 0.0378 percentage | Estimate, difference between change in high and low responders: TG20.3n9 [4]: −0.0052 percentage | Estimate, difference between change in high and low responders: TG20.4n3 [4]: −0.0056 percentage | Estimate, difference between change in high and low responders: TG20.4n6 [4]: 0.1005 percentage | Estimate, difference between change in high and low responders: TG22.0 [4]: 0.0184 percentage | Estimate, difference between change in high and low responders: TG22.4n6 [4]: −0.0138 percentage | Estimate, difference between change in high and low responders: TG22.5n6 [4]: −0.0165 percentage | Estimate, difference between change in high and low responders: FA20.0 (proportion of free fatty acids): 0.0159 percentage | Estimate, difference between change in high and low responders: FA20.1n9 (proportion of free fatty acids): 0.0823 percentage | Estimate, difference between change in high and low responders: FA22.1n9 (proportion of free fatty acids): −0.0615 percentage | Estimate, difference between change in high and low responders: FA22.2n6 (proportion of free fatty acids): −0.0088 percentage

— patent publication US8137977B2, “Lipidomic approaches to determining drug response phenotypes in cardiovascular disease” (Children's Hospital & Research Center at Oakland, priority 2007, dated 2012)
